Laboratory results as given in patent publication US11091423B2, “Reagents and methods for esterification” (Wisconsin Alumni Research Foundation, priority 2013, dated 2021).

Biological target: T1, ribonuclease A (RNase A) (Bos taurus, UniProt P61823)
T1 sequence (P61823 27-150): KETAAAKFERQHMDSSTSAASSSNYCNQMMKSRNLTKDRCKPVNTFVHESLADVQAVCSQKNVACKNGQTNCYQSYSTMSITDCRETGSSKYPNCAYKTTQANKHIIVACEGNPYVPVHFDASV
Assay: RNase A labeling (esterification of carboxyl groups), extent by MALDI, labelled residues by trypsin digestion and mass spectrometry
Assay type: biochemical
Details: for RNase A residues labelled (chemoselectivity): trypsin digestion coupled with mass spectrometry; for extent of labeling of RNase A (average number of the eleven carboxylates esterified): 10 equivalents of diazo compound
Protocol: To address biocompatibility of diazo-compounds for esterification more directly, the relative esterification efficiency of these diazo compounds was compared with the eleven carboxyl groups present in ribonuclease A (RNase A).[24]
Only after the addition of 200 equivalents was any esterification with diazo-acetamide 1 observed which correlates with its lack of selectivity under aqueous conditions (Scheme 2).
Using trypsin digestion coupled with mass spectrometry, it was determined which residues were labelled and the results fit well with the observed chemoselectivity of each diazo compound. […] This provides further evidence that properly tuned diazo compounds can not only attain high levels of labelling, but can also selectively label specific residues.
Ribonuclease A (0.001 g, 0.073 μmol) was dissolved in MES buffer (10 mM, pH=5.5, 0.1 mL) and diazobenzylacetamide (0.0026 g, 14.6 μmol) was dissolved in acetonitrile (0.1 mL). The two solutions were combined and the reaction was allowed to stir 4 hours at 37° C.
Ribonuclease A (0.001 g, 0.073 μmol) was dissolved in MES buffer (10 mM, pH=5.5, 0.1 mL) and a stock solution of diazofluorene in acetonitrile was made (Stock solution: 0.001 g, 7.30 μmol, 1 mL CH3CN). The stock solution of diazo compound (0.1 mL, 0.730 μmol) was added to the ribonuclease solution and the reaction was allowed to stir 4 hours at 37° C. Any remaining diazo compound was then quenched by adding 0.1 M acetic acid (0.1 mL) and the reaction was concentrated and the extent of labeling was determined by MALDI spectroscopy to be ˜3 labels per RNase A.

[1] = 4 hours at 37° C., MES buffer pH 5.5/acetonitrile

| extent of labeling of RNase A (average number of the eleven carboxylates esterified) [1] | extent of labeling of RNase A (average number of the eleven carboxylates esterified) (4 hours at 37° C., MES buffer pH 5.5/acetonitrile, listed as diazobenzylacetamide) | extent of labeling of RNase A (200 equivalents of diazo compound, 4 hours at 37° C., MES buffer pH 5.5/acetonitrile) [label per RNase A] | Structure (SMILES) | RNase A residues labelled (chemoselectivity) (10 equiv.) | RNase A residues labelled (chemoselectivity) (200 equiv.) |
| --- | --- | --- | --- | --- | --- |
| ~3 labels per RNase A | – | – | [N-]=[N+]=C1c2ccccc2-c2ccccc21 [compound 2, Diazofluorene] | almost exclusively labelling Asp14, Glu49, Glu111, and Asp121 | – |
| incapable of labelling | no labeling was observed | < 1 | [N-]=[N+]=C(Cc1ccccc1)C(N)=O [compound 1, Diazobenzylacetamide] | – | comparably labelling residues Glu9, Asp14, Glu49, Glu111, and the C-terminal Val124 |
